Usually IC50 stands for the midpoint of a concentration-inhibition curve.

Substitutions are numbered along the chain they refer to. Read-outs that look alike come from different tables or passages of the source. Where only a bound is given, the exact number is not on record here.

Series [1] concerns the target T1, hGAT3 (Homo sapiens, UniProt P48066).
T1 sequence (P48066 1-632): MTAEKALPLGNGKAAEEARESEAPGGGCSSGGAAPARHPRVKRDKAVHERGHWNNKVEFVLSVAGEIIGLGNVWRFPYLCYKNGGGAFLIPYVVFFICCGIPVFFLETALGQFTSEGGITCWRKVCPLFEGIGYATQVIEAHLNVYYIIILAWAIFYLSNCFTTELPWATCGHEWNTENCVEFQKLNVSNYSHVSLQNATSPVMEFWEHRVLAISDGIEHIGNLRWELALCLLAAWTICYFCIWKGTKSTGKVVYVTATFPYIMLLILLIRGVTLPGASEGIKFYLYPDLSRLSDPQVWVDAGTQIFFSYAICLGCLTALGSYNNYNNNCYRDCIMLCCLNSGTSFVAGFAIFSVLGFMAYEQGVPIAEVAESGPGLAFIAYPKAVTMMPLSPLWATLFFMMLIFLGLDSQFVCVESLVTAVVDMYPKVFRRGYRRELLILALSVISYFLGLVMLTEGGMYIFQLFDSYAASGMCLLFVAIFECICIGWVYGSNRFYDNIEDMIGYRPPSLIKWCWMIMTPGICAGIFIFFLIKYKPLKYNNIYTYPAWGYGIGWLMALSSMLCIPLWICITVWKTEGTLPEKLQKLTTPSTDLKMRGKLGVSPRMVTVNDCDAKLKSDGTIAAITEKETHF
Briefly: [3H]GABA competition uptake assay, wild-type hGAT3 in HEK293T cells. It is filed as cell-based.

A further series has as its target T2, hGAT3-C316S (Homo sapiens, UniProt P48066, C316S).
T2 sequence (P48066 1-632 C316S): T1 sequence (P48066 1-632) with C316S
Briefly: [3H]GABA competition uptake assay, hGAT3-C316S mutant in HEK293T cells. It is filed as cell-based.

The target of series [2] is T1, hGAT3. Briefly: [3H]GABA uptake kinetic. It is filed as cell-based. As to conditions: with and without preincubation.
Series [3] has as its target T1, hGAT3. Put plainly: FLIPR membrane potential. It is filed as cell-based.
A further series deals with T3, hGAT3-eGFP (Homo sapiens, UniProt P48066).
T3 sequence (P48066 1-632): T1 sequence (P48066 1-632)
Put plainly: Confocal microscopy of membrane-localized hGAT3-eGFP fluorescence. It is filed as cell-based. As to conditions: 100 µM SR-THAP; 1 h incubation; versus buffer.

For series [4] the following is noted: cited from earlier work.
The conditions of series [5]: cited from earlier work. This is another data set of the same source.
For series [6] the following is noted: cited from earlier work. The source holds these as a separate data set.
For series [7] the following is noted: cited from earlier work. The source holds these as a separate data set.
Another series concerns mice with stroke. Conditions: cited from earlier work.

In the case of `NCCCC(=O)O` [GABA, γ-Aminobutyric acid, reference compound], the results for the IC50 at hGAT3 [1] and at hGAT3-C316S were 6.9 µM and 4.2 µM, respectively.

Regarding `COc1ccc(C(/C=C/CN2CCC[C@@H]2[C@H](O)C(=O)O)(c2ccc(OC)cc2)c2ccc(OC)cc2)cc1` [SR-THAP, (2S, 2′R)−2-hydroxy-2-(1-((E)−4,4,4-tris(4-methoxyphenyl)but-2-en-1-yl)pyrrolidin-2′-yl)acetic acid], the “time to equilibrium between extracellular and cytosolic compound” value at hGAT3 [1] (from preincubation time course) was not above 15 min. The IC50 was 4.9 µM on hGAT3 [1] (read-out: IC50, inhibition of [3H]GABA uptake by hGAT3, 120 min preincubation (with preincubation), HEK293T cells) and 10.6 µM on hGAT3-C316S (read-out: IC50, inhibition of [3H]GABA uptake by hGAT3-C316S, 120 min preincubation). For the same compound, the “increase in potency after 120-min preincubation” value on hGAT3 [1] (versus without preincubation) is on record as “five-fold”. For the same compound, the “mode of inhibition ([3H]GABA uptake kinetics)” value at hGAT3 [2] is “non-competitive”. Moreover, on hGAT3 [3] (50 µM GABA, 20 µM SR-THAP, compared with buffer), the “substrate-like response / transport in FMP assay” value was “no substrate-like response”. Besides, the “mode of inhibition (FMP Michaelis-Menten kinetics)” value on hGAT3 [3] (absence of preincubation) is reported as “non-competitive”. Also, the “surface expression of hGAT3 (membrane-localized eGFP fluorescence)” value on hGAT3-eGFP is recorded as “No difference”.

As to `COc1ccc(C(OCCN2CCC[C@H](C(=O)O)C2)(c2ccc(OC)cc2)c2ccc(OC)cc2)cc1` [(S)-SNAP-5114, (S)−1-{2-[Tris(4-methoxyphenyl)methoxy]ethyl}piperidine-3-carboxylic acid], the chemical stability entry in series [4] is “poor”. In addition, the solubility entry in series [5] is on record as “limited”. In addition, the “brain uptake after systemic administration” value in series [6] is on record as “limited”. For the same compound, in [7], the cellular toxicity entry is “cellular toxicity”. The in vivo toxicity entry with mice with stroke is “severe in vivo toxicity”.

The record behind these values is paper PMC12916826 (Nature Communications, 2026).
